In this assay the test system is DSS-induced colitis model. Kind of assay: Efficacy in model of dextran sulfate sodium-induced colitis. Format: in vivo, C57BL/6J mice. How it is done: A colitis model was prepared by allowing 7-week-old male C57BL/6J mice to freely drink a 1.5% aqueous solution of dextran sulfate sodium (hereinafter, DSS) dissolved in pure water purified through a Milli-Q (registered trademark, Merck Millipore) filter (hereinafter, referred to as Milli-Q water). For the control group, only Milli-Q water was administered. Simultaneously with the start of administration of DSS in drinking water, feed prepared by mixing Compound A (0.01%, 0.03%) with powdered FR-2 was administered to the feed administered group. For the vehicle group with feeding, and the control group, to which no DSS was administered, only powdered FR-2 was administered. The day on which the administration of DSS in drinking water and the administration of the compound were started was designated as Day 1, and the administration was continued until Day 8.
Control group: Milli-Q water, FR-2 (N=10) Vehicle group: 1.5% DSS solution, FR-2 (N=10) Compound A 0.01% group: 1.5% DSS solution, FR-2 mixed with 0.01% Compound A (N=10) Compound A 0.03% group: 1.5% DSS solution, FR-2 mixed with 0.03% Compound A (N=10)
All animals were weighed in the morning from Day 1 to Day 8. On Day 8, the abdomen was opened under isoflurane anesthesia, blood was collected from the abdominal vein by an untreated syringe, the duodenum, large intestine, rectum, and anus were removed, and the length of the removed large intestine was measured with an electric caliper. The large intestine was cut open to observe the stool properties and score the degree of diarrhea.

Setting [1] is: 0.03% Compound A in feed, Day 1 to Day 8, 1.5% DSS in drinking water, compared with negative control.

Turning to `Cc1nc(CC2CCN(c3ccc(-c4ccc(C[C@H](C)O)cc4)cc3)CC2)nc(C(=O)NCC(=O)O)c1O` [Compound A, [({5-hydroxy-2-[(1-{4′-[(2S)-2-hydroxypropyl]biphenyl-4-yl}piperidin-4-yl)methyl]-6-methylpyrimidin-4-yl}carbonyl)amino]acetic acid], under setting [1], the “Inhibitory effect on intestinal length shortening (intestinal tract length on Day 8)” value was “significant inhibitory effect on intestinal length shortening” and the “Inhibitory effect on weight loss (amount of change in body weight on Day 8)” value is given as “significant inhibitory effect on weight loss”. The “Diarrhea score on Day 8 (stool properties)” value (compound-administered group (0.01%, 0.03% in feed), 1.5% DSS, score 0-3 per Table 1, compared with negative control) is recorded as “tended to have improved stool properties”. Besides, where the note is “overall conclusion, mice, administration in feed Day 1 to Day 8”, the “Effect on the clinical condition in DSS-induced colitis model” value is “improving effect on the clinical condition”.

Source of the values: patent US20210008069A1, “THERAPEUTIC AGENT FOR INFLAMMATORY BOWEL DISEASE” (DAIICHI SANKYO COMPANY, LIMITED, priority 2018, published 2021).
